{"source": "patent US20240398698A1", "about": "“CONAZOLANTIFUNGAL KETOE IN SOLUTION OR SUSPENSION FOR USE IN THE HUMAN EAR” (priority 2023, published 2024)", "origin": "cited, not measured here"}
{"smiles": "CC(=O)N1CCN(c2ccc(OCC3COC(Cn4ccnc4)(c4ccc(Cl)cc4Cl)O3)cc2)CC1", "note": "(stereo not drawn) [Ketoconazole, ketoconazole]", "values": [{"measurement": "solubility in acetic acid", "setting": "acetic acid", "value": "not soluble"}, {"measurement": "solubility in alcohol", "setting": "alcohol", "value": "soluble"}, {"measurement": "solubility in water", "setting": "water", "value": "poorly soluble"}]}
